Assay results: patent publication US6716613B1, “Metalloprotease having aggrecanase activity” (Yamanouchi Pharmaceutical Co., Ltd., priority 1999, dated 2004)

Legend:
MDTS6 mRNA = test: Induction of MDTS6 mRNA expression in rabbit knee joint cartilage primary culture cells (RT-PCR); type: cell-based; settings: 10 ng/ml of IL-1β or 10 μM of all-trans retinoic acid; 2 and 6 hours
Procedure: After 3 days of culturing of the rabbit knee joint cartilage primary culture cells of 6 well plate described in Example 11-1 by changing the medium to ascorbic acid medium, 10 ng/ml of IL-1β or 10 μM of all-trans retinoic acid was added thereto, and total RNA samples 2 and 6 hours thereafter were prepared using ISOGEN (mfd. by Nippon Gene) in accordance with the attached instructions. Each of the samples was treated with DNase I (mfd. by Nippon Gene), subjected to phenol/chloroform treatment and then recovered by ethanol precipitation, and the thus purified total RNA was dissolved in DEPC-treated sterile water. Using random hexamers as primers, 1 μg of this total RNA was subjected to reverse transcription reaction and RNase H treatment using Thermoscript™ RT-PCR System (mfd. by GIBCO-BRL, catalog number 11146-016) in accordance with the attached instructions, and the product was diluted 10 times with sterile water and used as a cDNA sample. Using 5 μl of each of the thus obtained cDNA samples as the template and the oligoDNA sequences represented by SEQ ID NO:18 and SEQ ID NO:19 as primers, PCR was carried out under a condition of 94° C. for 2 minutes, 45 repetitions of a cycle of 94° C. for 30 seconds, 65° C. for 30 seconds and 72° C. for 30 seconds, and subsequent 72° C. for 10 minutes. […]

[1] = system: rabbit knee joint cartilage primary culture cells; test: Proteoglycan degradation/release in rabbit knee joint cartilage primary culture cells (35S label); type: cell-based; settings: for IC50: Oryctolagus cuniculus, read-out: proteoglycan degradation inhibition action (IC50)
Procedure: After killing a rabbit (Japanese white species, male, 1.0 to 1.5 kg) under excess anesthesia, a knee joint was excised and the cartilage layer on the joint surface was removed and finely cut using a surgical knife. The cut pieces were treated with trypsin-EDTA (0.25%-1 mM; mfd. by GIBCO-BRL) at 37° C. for 1 hour and then centrifuged at 1,500 rpm for 5 minutes, and the resulting precipitate was washed with DMEM. This was treated with collagenase A (0.15%; Boehringer-Mannheim)/DMEM at 37° C. for 3 to 4 hours, and then a nylon mesh filter (100 μm, mfd. by Falcon)-passed fraction was centrifuged at 1,500 rpm for 5 minutes to effect precipitation of cartilage cells. The cells were thoroughly washed with DMEM/10% FBS medium, suspended in DMEM/10% FBS medium to a density of 2×10^5 cells/ml and then inoculated in 200 μl/well portions into an I type collagen-coated 96 well plate (mfd. by Asahi Technoglass). Three days thereafter, the medium was changed to 200 μof DMEM/10% FBS medium containing 50 μg/ml of ascorbic acid (ascorbic acid medium hereinafter), and the culturing was continued for 3 days. When an I type collagen-coated 6 well plate (Asahi Technoglass) was used, the cell suspension was inoculated in 6 ml/well portions and cultured by carrying out the same medium exchange. These cells were used in the following test.
The rabbit knee joint cartilage primary culture cells of 96 well plate described in Example 11-1 were cultured for 2 days using 200 μl of the ascorbic acid medium supplemented with 10 μCi/ml in final concentration of Na2^35SO4 and labeled therewith, washed 3 times with 200 μl of the ascorbic acid medium and then cultured for 1 day using 200 μl of the ascorbic acid medium. After stimulation with IL-1β or all-trans retinoic acid and subsequent 0, 24, and 48 hours of culturing, the culture supernatants were recovered in 20 μl portions, and the radioactivity was measured using Top Count (mfd. by Packard).
Each of the compounds A, B, C and D selected by the screening system of Example 10-2 was added to the proteoglycan degradation system of rabbit knee joint cartilage primary culture cells just before the stimulation with 10 μM of all-trans retinoic acid, and their proteoglycan degradation inhibitory activities were examined.

[2] = system: recombinant aggrecan G1G2; test: Recombinant aggrecan G1G2 degradation by expressed MDTS6 proteins (western blotting); type: biochemical, human; settings: method of Example 7-3, anti-aggrecanase neoepitope antibody
Procedure: In Example 6, the medium 12 to 16 hours after introduction of the expression plasmid was replaced by a serum-free medium, and the culturing was continued for 32 to 36 hours to recover the culture supernatant. This culture supernatant was mixed with the recombinant aggrecan prepared in the foregoing, and the mixture was allowed to undergo the reaction at 37° C. overnight, subjected to SDS-PAGE, transferred on a PVDF membrane and blocked by the method described in Example 6 and then allowed to react with an anti-Hisx6 polyclonal antibody (sc-803; mfd. by Santa Cruz Biotechnology) and a horseradish peroxidase-labeled goat anti-rabbit IgG polyclonal antibody (mfd. by BML) in that order. After the reaction, the recombinant aggrecan was detected using an ECL western blotting system (mfd. by Amersham Pharmacia). As a result, degraded fragment of the recombinant aggrecan, which was not found in the control in which only the […] was introduced, was detected (FIG. 2).
Aggrecanase is a metalloprotease which selectively cleaves aggrecan at the site between Glu^373 -Ala^374. An antibody capable of recognizing a C-side neoepitope generated by this cleavage was prepared in accordance with a usual method by repeating immunization of mouse with a conjugate of the synthetic peptide represented by SEQ ID NO:32 and KLH, 5 times. A PVDF membrane after transfer and blocking carried out in the same manner as in Example 7-2 was allowed to react with this antibody, allowed to react with a peroxidase-labeled goat anti-mouse IgG polyclonal antibody (mfd. by Tago) and then detected using an ECL western blotting detection system (mfd. by Amersham Pharmacia). As a result, the degraded product of recombinant aggrecan generated by MDTS6 reacted with the anti-aggrecanase neoepitope antibody, and molecular weight of the detected band is consistent with the molecular weight of the degraded product detected in Example 7-2 (FIG. 3). The same result was obtained by the BC-3 antibody which recognizes aggrecanase neoepitope (Hughes C. E. et al., Biochemical J., 305, 799-804, 1995). […]

[3] = compound added just before stimulation with 10 μM of all-trans retinoic acid

With `CC1=C(/C=C/C(C)=C/C=C/C(C)=C/C(=O)O)C(C)(C)CCC1` [all-trans retinoic acid, reference compound] the “expression of the MDTS6 mRNA” value (MDTS6 mRNA) was “induced” and the “release of proteoglycan (increase in radioactivity of culture supernatant)” value ([1]; stimulation with 0.01 to 10 ng/ml IL-1β or 0.1 to 10 μM all-trans retinoic acid, 0, 24, 48 hours of culturing) was “concentration-dependent and strong radioactivity, namely release of proteoglycan, was observed”.

With `CNC(=O)C(Cc1ccc(OC)cc1)NC(=O)C(CC(C)C)C(CS)C(=O)NO` (stereo not drawn) [compound A, N-^α-[2-(1-hydroxycarbamoyl-2-sulfanylethyl)-4-methylpentanoyl]-N,O-dimethyltyrosineamide] the “inhibition of proteoglycan degradation (in words, FIG. 8)” value [1, 3] was “inhibition of proteoglycan degradation in a concentration-dependent manner”.

For `CNC(=O)[C@H](Cc1ccc(OC)cc1)NC(=O)C(CC(C)C)C(CSc1ccccc1)C(=O)NO` (stereo partly drawn) [compound C, N^α-[2-(1-hydroxycarbamoyl-2-phenylsulfanylethyl)-4-methylpentanoyl]-N,O-dimethyltyrosineamide], the IC50 [1, 3] was 6.3 µM.

`CNC(=O)[C@H](Cc1ccc(OC)cc1)NC(=O)C(CC(C)C)C(CSC)C(=O)NO` (stereo partly drawn) [compound D, N^α-[2-(1-hydroxycarbamoyl-2-methylsulfanylethyl)-4-methylpentanoyl]-N,O-dimethyltyrosineamide] showed an IC50 [1, 3] of 4.1 µM.

B1: MDTS6Pro: protein of amino acids 1st to 447th position of SEQ ID NO:1 with the polypeptide of SEQ ID NO:33 added to the C-terminus (protein)
chain: FVSIPRYVETLVVADESMVKFHGADLEHYLLTLLATAARLYRHPSILNPINIVVVKVLLLRDRDSGPKVTGNAALTLRNFCAWQKKLNKVSDKHPEYWDTAILFTRQDLCGATTCDTLGMADVGTMCDPKRSCSVIEDDGLPSAFTTAHELGHVFNMPHDNVKVCEEVFGKLRANHMMSPTLIQIDRANPWSACSAAIITDFLDSGHGDCLLDQPSKPISLPEDLPGASYTLSQQGSAAADYKDDDDK
With B1 the “aggrecanase activity in culture supernatant” value (“aggrecanase activity” below) [2] was “not detected”.

B2: MDTS6Dis: protein of amino acids 1st to 518th position of SEQ ID NO:1 with the polypeptide of SEQ ID NO:33 added to the C-terminus (protein)
chain: FVSIPRYVETLVVADESMVKFHGADLEHYLLTLLATAARLYRHPSILNPINIVVVKVLLLRDRDSGPKVTGNAALTLRNFCAWQKKLNKVSDKHPEYWDTAILFTRQDLCGATTCDTLGMADVGTMCDPKRSCSVIEDDGLPSAFTTAHELGHVFNMPHDNVKVCEEVFGKLRANHMMSPTLIQIDRANPWSACSAAIITDFLDSGHGDCLLDQPSKPISLPEDLPGASYTLSQQCELAFGVGSKPCPYMQYCTKLWCTGKAKGQMVCQTRHFPWADGTSCGEGKLCLKGACVERHNLNKHRVDGSGSAAADYKDDDDK
B2 was tested, and the “aggrecanase activity” value [2] was “not detected”.

B3: MDTS6Cys: protein of amino acids 1st to 687th position of SEQ ID NO:1 with the polypeptide of SEQ ID NO:33 added to the C-terminus (protein)
chain: FVSIPRYVETLVVADESMVKFHGADLEHYLLTLLATAARLYRHPSILNPINIVVVKVLLLRDRDSGPKVTGNAALTLRNFCAWQKKLNKVSDKHPEYWDTAILFTRQDLCGATTCDTLGMADVGTMCDPKRSCSVIEDDGLPSAFTTAHELGHVFNMPHDNVKVCEEVFGKLRANHMMSPTLIQIDRANPWSACSAAIITDFLDSGHGDCLLDQPSKPISLPEDLPGASYTLSQQCELAFGVGSKPCPYMQYCTKLWCTGKAKGQMVCQTRHFPWADGTSCGEGKLCLKGACVERHNLNKHRVDGSWAKWDPYGPCSRTCGGGVQLARRQCTNPTPANGGKYCEGVRVKYRSCNLEPCPSSASGKSFREEQCEAFNGYNHSTNRLTLAVAWVPKYSGVSPRDKCKLICRANGTGYFYVLAPKVVDGTLCSPDSTSVCVQGKCIKAGCDGNLGSKKRFDKCGVCGGDNKSCKKVTGGSAAADYKDDDDK
B3 was tested, and the “aggrecanase activity” value [2] was “detected”.
